Data published in patent US9242984B2, “Pyrazolyl derivatives as Syk inhibitors” (Merck Sharp & Dohme Corp., priority 2012, dated 2016).

Biological target: T1, recombinant human Syk (GST-hSyk fusion protein) (Homo sapiens, UniProt P43405)
T1 construct: purchased Carna Biosciences 08-176
Experiment: Homogeneous Time-Resolved Fluorescence (HTRF) assay for the recombinant human Syk enzyme
Type: biochemical
Conditions: 10-dose titration, 25 μM ATP; read-out: rhSYK IC50
Outline: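 GST-hSyk (5 pM) preincubated 10 min with compound (0.1% DMSO) in 15 mM Tris-HCl pH 7.5, 2 mM DTT; reaction started with 250 nM biotinylated peptide, 5 mM Mg, 25 μM ATP, 45 min, room temperature. EDTA quench, Eu-anti-phosphotyrosine/SA-APC HTRF read after 30 min; IC50 from 10-dose titration (10 μM–0.508 nM), four-parameter fit.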

Question: `Cc1cc(Nc2nccc(C(F)F)n2)cc(-c2cnn(CC(O)(CO)C(F)(F)F)c2)c1` (single isomer, unassigned) [Example 25.1, 2-((4-(3-((4-(Difluoromethyl)pyrimidin-2-yl)amino)-5-methylphenyl)-1H-pyrazol-1-yl)methyl)-3,3,3-trifluoropropane-1,2-diol] was tested. Which IC50 did it give?
Answer: 3.2 nM

Question: `Cc1cc(Nc2ncccn2)cc(-c2cnn(C(C)c3ccc(C(N)=O)cc3)c2)c1` (single isomer, unassigned) [Example 28.1, 4-(1-(4-(3-Methyl-5-(pyrimidin-2-ylamino)phenyl)-1H-pyrazol-1-yl)ethyl)benzamide] was tested. Which IC50 did it give?
Answer: 57.5 nM

Question: How did the IC50 turn out when `Cc1cc(Nc2nccc(C(F)(F)F)n2)cc(-c2cnn(C(C)C)c2)c1` [Example 13.1, N-(3-(1-isopropyl-1H-pyrazol-4-yl)-5-methylphenyl)-4-(trifluoromethyl)-pyrimidin-2-amine] was run?
Answer: 10.7 nM

Same assay, conditions: IC50 class; 10-dose titration, 25 μM ATP; read-out: rhSYK Activity

Question: With `Cc1cc(Nc2cc(C(F)(F)F)ccn2)nc(-c2cnn(CC(C)(O)CO)c2)c1` (centres unmarked) [Example 21.4, 2-methyl-3-[4-(4-methyl-6-{[4-(trifluoromethyl)pyridin-2-yl]amino}pyridin-2-yl)-1H-pyrazol-1-yl]propane-1,2-diol] as the compound, how does the IC50 read?
Answer: ≤ 100 nM

Question: `Cc1cc(Nc2nccc(C(F)(F)F)n2)cc(-c2cnn(C[C@H](O)C(N)=O)c2)c1` [Example 8.4, (2S)-2-hydroxy-3-[4-(3-methyl-5-{[4-(trifluoromethyl)-pyrimidin-2-yl]amino}-phenyl)-1H-pyrazol-1-yl]propanamide] was tested. Which IC50 did it give?
Answer: ≤ 100 nM

Question: Which IC50 does the source give for `Cc1cc(Nc2nccc(C(F)F)n2)cc(-c2cnn(CC(O)(CO)C(F)(F)F)c2)c1` (single isomer, unassigned) [Example 25.1, 2-((4-(3-((4-(Difluoromethyl)pyrimidin-2-yl)amino)-5-methylphenyl)-1H-pyrazol-1-yl)methyl)-3,3,3-trifluoropropane-1,2-diol] here?
Answer: ≤ 100 nM

Question: Which IC50 does the source give for `Cc1cc(Nc2nccc(C(F)(F)F)n2)cc(-c2cnn(C3CCC(C(=O)O)C(C)(C)C3)c2)c1` (centres unmarked) [Example 2.59, 2,2-dimethyl-4-[4-(3-methyl-5-{[4-(trifluoromethyl)pyrimidin-2-yl]amino}phenyl)-1H-pyrazol-1-yl]cyclohexanecarboxylic acid] here?
Answer: ≤ 100 nM

Question: For `Cc1cc(Nc2nccc(C(F)(F)F)n2)cc(-c2cnn(Cc3cc(C)no3)c2)c1` [Example 3.25, N-(3-methyl-5-{1-[(3-methylisoxazol-5-yl)methyl]-1H-pyrazol-4-yl}phenyl)-4-(trifluoromethyl)-pyrimidin-2-amine], which IC50 is on record?
Answer: ≤ 100 nM

Question: Which IC50 does the source give for `Cc1cc(Nc2nccc(C(F)F)n2)cc(-c2cnn(C(C)C3CNC(=O)C3)c2)c1` (centres unmarked) [Example 2.67, 4-{1-[4-(3-{[4-(difluoromethyl)pyrimidin-2-yl]amino}-5-methylphenyl)-1H-pyrazol-1-yl]ethyl}pyrrolidin-2-one] here?
Answer: ≤ 100 nM

Question: How did the IC50 turn out when `Cc1cc(Nc2nccc(C(F)(F)F)n2)cc(-c2cnn(CC3COCCO3)c2)c1` (centres unmarked) [Example 3.9, N-{3-[1-(1,4-dioxan-2-ylmethyl)-1H-pyrazol-4-yl]-5-methyl-phenyl}-4-(trifluoro-methyl)pyrimidin-2-amine] was run?
Answer: ≤ 100 nM

Question: With `Cc1cc(Nc2nccc(C(F)(F)F)n2)cc(-c2cnn(C[C@H](O)C(=O)O)c2)n1` [Example 11.18, (2S)-2-hydroxy-3-[4-(6-methyl-4-{[4-(trifluoro-methyl)pyrimidin-2-yl]amino}pyridin-2-yl)-1H-pyrazol-1-yl]propanoic acid] as the compound, how does the IC50 read?
Answer: ≤ 100 nM

Question: How did the IC50 turn out when `Cc1cc(Nc2nccc(C)n2)cc(-c2cnn(CC(C)(O)CO)c2)c1` (single isomer, unassigned) [Example 25.2, 2-methyl-3-(4-{3-methyl-5-[(4-methylpyrimidin-2-yl)amino]phenyl}-1H-pyrazol-1-yl)propane-1,2-diol] was run?
Answer: ≤ 100 nM

Question: With `Cc1cc(Nc2nccc(C(F)F)n2)cc(-c2cnn(CC3OC(=O)NC3C3CC3)c2)c1` (single isomer, unassigned) [Example 23.19, 4-cyclopropyl-5-{[4-(3-{[4-(difluoromethyl)pyrimidin-2-yl]amino}-5-methylphenyl)-1H-pyrazol-1-yl]methyl}-1,3-oxazolidin-2-one] as the compound, how does the IC50 read?
Answer: ≤ 100 nM

Question: For `Cc1cc(Nc2ncccn2)cc(-c2cnn(C(C)c3ccc(C(N)=O)cc3)c2)c1` (single isomer, unassigned) [Example 28.1, 4-(1-(4-(3-Methyl-5-(pyrimidin-2-ylamino)phenyl)-1H-pyrazol-1-yl)ethyl)benzamide], which IC50 is on record?
Answer: ≤ 100 nM

Question: How did the IC50 turn out when `Cc1cc(Nc2cc(C(F)(F)F)ccn2)nc(-c2cnn(CCC(C)C)c2)c1` [Example 1.14, 4-methyl-6-[1-(3-methylbutyl)-1H-pyrazol-4-yl]-N-[4-(trifluoromethyl)pyridin-2-yl]pyridin-2-amine] was run?
Answer: ≤ 100 nM

Question: Which IC50 does the source give for `Cc1cc(Nc2nccc(C(F)F)n2)cc(-c2cnn(CC3OC(=O)NC3C)c2)c1` (single isomer, unassigned) [Example 23.13, 5-{[4-(3-{[4-(difluoromethyl)pyrimidin-2-yl]amino}-5-methylphenyl)-1H-pyrazol-1-yl]methyl}-4-methyl-1,3-oxazolidin-2-one] here?
Answer: ≤ 100 nM

Question: `Cc1cc(Nc2nccc(C(F)(F)F)n2)cc(-c2cnn(C(C)c3ccc(C(=O)O)cc3)c2)c1` (centres unmarked) [Example 1.49, 4-{1-[4-(3-methyl-5-{[4-(trifluoromethyl)pyrimidin-2-yl]amino}phenyl)-1H-pyrazol-1-yl]ethyl}benzoic acid] was tested. Which IC50 did it give?
Answer: ≤ 100 nM

Question: `Cc1cc(Nc2nccc(C(F)(F)F)n2)cc(-c2cnn(C(C)C)c2)c1` [Example 13.1, N-(3-(1-isopropyl-1H-pyrazol-4-yl)-5-methylphenyl)-4-(trifluoromethyl)-pyrimidin-2-amine] was tested. Which IC50 did it give?
Answer: ≤ 100 nM

Question: For `CCOC(=O)CCn1cc(-c2cc(C)cc(Nc3nccc(C)n3)c2)cn1` [Example 2.42, ethyl 3-(4-{3-methyl-5-[(4-methylpyrimidin-2-yl)amino]phenyl}-1H-pyrazol-1-yl)propanoate], which IC50 is on record?
Answer: ≤ 100 nM

Question: How did the IC50 turn out when `Cc1cc(Nc2nccc(C(C)(F)F)n2)cc(-c2cnn(CC3CNC(=O)O3)c2)c1` (centres unmarked) [Example 3.126, 5-{[4-(3-{[4-(1,1-difluoroethyl)pyrimidin-2-yl]amino}-5-methylphenyl)-1H-pyrazol-1-yl]methyl}-1,3-oxazolidin-2-one] was run?
Answer: ≤ 100 nM

Question: Which IC50 does the source give for `Cc1cc(Nc2cc(C(F)(F)F)ccn2)nc(-c2ccnn2C)n1` [Example 1.45, 6-methyl-2-(1-methyl-1H-pyrazol-5-yl)-N-[4-(trifluoro-methyl)pyridin-2-yl]pyrimidin-4-amine] here?
Answer: 100 to 1000 nM

Question: With `Cc1cc(Nc2cc(C(F)(F)F)ccn2)nc(-c2cn[nH]c2)c1` [Example 1.12, 4-methyl-6-(1H-pyrazol-4-yl)-N-[4-(trifluoromethyl)pyridin-2-yl]pyridin-2-amine] as the compound, how does the IC50 read?
Answer: ≤ 100 nM

Question: How did the IC50 turn out when `COc1nc(Nc2cc(C)cc(-c3cnn(CC4CNC(=O)O4)c3)c2)ncc1Cl` (centres unmarked) [Example 2.28, 5-[(4-{3-[(5-chloro-4-methoxypyrimidin-2-yl)amino]-5-methylphenyl}-1H-pyrazol-1-yl)methyl]-1,3-oxazolidin-2-one] was run?
Answer: ≤ 100 nM

Question: Which IC50 does the source give for `Cc1cc(Nc2nccc(OC(C)C)n2)cc(-c2cnn(C[C@H](O)C(N)=O)c2)c1` [Example 6.6, (2S)-2-hydroxy-3-[4-(3-methyl-5-{[4-(1-methyl-ethoxy)pyrimidin-2-yl]amino}-phenyl)-1H-pyrazol-1-yl]-propanamide] here?
Answer: ≤ 100 nM

Question: How did the IC50 turn out when `Cc1cc(Nc2nccc(C(F)(F)F)n2)cc(-c2cnn(CCCN3CCNC3=O)c2)c1` [Example 3.6, 1-{3-[4-(3-methyl-5-{[4-(trifluoro-methyl)pyrimidin-2-yl]amino}-phenyl)-1H-pyrazol-1-yl]-propyl}imidazolidin-2-one] was run?
Answer: ≤ 100 nM

Question: `Cc1cc(Nc2cc(C3CC3)ccn2)nc(-c2cnn(CC3(O)CCC3)c2)c1` [Example 29.7, 1-[(4-{6-[(4-cyclopropylpyridin-2-yl)amino]-4-methylpyridin-2-yl}-1H-pyrazol-1-yl)methyl]cyclobutanol] was tested. Which IC50 did it give?
Answer: ≤ 100 nM

Question: `Cc1cc(Nc2nccc(C(F)(F)F)n2)cc(-c2cnn(CC3(C)CNC(=O)O3)c2)c1` (centres unmarked) [Example 3.118, 5-methyl-5-{[4-(3-methyl-5-{[4-(trifluoromethyl)pyrimidin-2-yl]amino}phenyl)-1H-pyrazol-1-yl]methyl}-1,3-oxazolidin-2-one] was tested. Which IC50 did it give?
Answer: ≤ 100 nM

Question: For `Cc1cc(Nc2nccc(C(F)(F)F)n2)cc(-c2cnn(CC3OC(=O)NC3(C)C)c2)c1` (centres unmarked) [Example 3.100, 4,4-dimethyl-5-{[4-(3-methyl-5-{[4-(trifluoromethyl)pyrimidin-2-yl]amino}phenyl)-1H-pyrazol-1-yl]methyl}-1,3-oxazolidin-2-one], which IC50 is on record?
Answer: ≤ 100 nM

Question: Which IC50 does the source give for `Cc1cc(Nc2nccc(C(F)F)n2)cc(-c2cnn(CC(O)CC(C)O)c2)c1` (centres unmarked) [Example 5.29, 1,3,5-trideoxy-1-[4-(3-{[4-(difluoromethyl)pyrimidin-2-yl]amino}-5-methylphenyl)-1H-pyrazol-1-yl]pentitol] here?
Answer: ≤ 100 nM

Question: For `Cc1cc(Nc2nccc(C(F)F)n2)cc(-c2cnn(CC(C)(C)N)c2)c1` [Example 2.85, N-{3-[1-(2-amino-2-methylpropyl)-1H-pyrazol-4-yl]-5-methylphenyl}-4-(difluoromethyl)pyrimidin-2-amine], which IC50 is on record?
Answer: ≤ 100 nM

Question: With `COCCOC(=O)NC(C)(C)Cn1cc(-c2cc(C)cc(Nc3nccc(C(F)F)n3)c2)cn1` [Example 27.12, 2-methoxyethyl {2-[4-(3-{[4-(difluoromethyl)pyrimidin-2-yl]amino}-5-methylphenyl)-1H-pyrazol-1-yl]-1,1-dimethylethyl}carbamate] as the compound, how does the IC50 read?
Answer: ≤ 100 nM

Question: How did the IC50 turn out when `Cc1cc(Nc2nccc(C(F)(F)F)n2)cc(-c2cnn(C(C)C3(O)CCOCC3)c2)c1` (centres unmarked) [Example 12.14, 4-{1-[4-(3-methyl-5-{[4-(trifluoromethyl)pyrimidin-2-yl]amino}phenyl)-1H-pyrazol-1-yl]ethyl}-tetrahydro-2H-pyran-4-ol] was run?
Answer: ≤ 100 nM

Question: How did the IC50 turn out when `Cc1cc(Nc2nccc(C(F)(F)F)n2)cc(-n2cc(C(C)(O)[C@H]3CC[C@H](C(=O)O)CC3)cn2)c1` (stereo partly drawn) [Example 19.12, trans-4-{1-hydroxy-1-[1-(3 methyl-5-{[4-(trifluoromethyl)pyrimidin-2-yl]amino}phenyl)-1H-pyrazol-4-yl]ethyl}cyclohexanecarboxylic acid] was run?
Answer: ≤ 100 nM

Question: How did the IC50 turn out when `Cc1cc(Nc2nccc(C(F)(F)F)n2)cc(-c2cnn(CC3OC(=O)NC3C(C)C)c2)c1` (single isomer, unassigned) [Example 23.5, 4-(1-methylethyl)-5-{[4-(3-methyl-5-{[4-(trifluoromethyl)pyrimidin-2-yl]amino}phenyl)-1H-pyrazol-1-yl]methyl}-1,3-oxazolidin-2-one] was run?
Answer: ≤ 100 nM

Question: With `O=C(O)C1CCC(n2cc(-c3cc(Cl)cc(Nc4cc(C(F)(F)F)ccn4)n3)cn2)CC1` (centres unmarked) [Example 1.55, 4-[4-(4-chloro-6-{[4-(trifluoromethyl)pyridin-2-yl]amino}pyridin-2-yl)-1H-pyrazol-1-yl]cyclohexanecarboxylic acid] as the compound, how does the IC50 read?
Answer: ≤ 100 nM
